Test [1] concerns HCV genotype 1a (H77 strain) replicon in HUH-7 cells. In words: HCV replicon luciferase reporter assay, genotype 1a. It is filed as cell-based. To be noted: Hepatitis C virus, Huh-7, 72 h, HCV genotype 1a replicon luciferase, 3 days incubation, read-out: LE_1a (EC50, range). The essentials:
(§1)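 Replicon inhibition for both genotypes was measured as Renilla luciferase signal (EnduRen, 7.5 μM final, 2 h) after 3-day, 37° C exposure of replicon-bearing HUH-7 cells in 4% FCS DMEM, 0.5% DMSO. The 1b construct carries S1179I; the 1a H77 construct carries P1496L and S2204I. Twenty-point, 3-fold dilutions were fitted four-parametrically for EC50, and CC50 was taken from multiplexed Cell Titer-Blue.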
(In general: Replicon systems follow genome replication, usually without infectious particles.)

Test [2] has as its system HCV genotype 1b (Con1) replicon in HUH-7 cells. In words: HCV replicon luciferase reporter assay, genotype 1b. As to conditions: Hepatitis C virus, Huh-7, 72 h, HCV genotype 1b replicon luciferase, 3 days incubation, read-out: LE_1b (EC50, range). In kind it is cell-based. The essentials: as §1

By EC50 is commonly meant the concentration giving half of the maximal effect.

Bounds are passed on as bounds.

As for `[2H]C([2H])([2H])Oc1cnc(O[C@@H]2C[C@H]3C(=O)N[C@]4(C(=O)NS(=O)(=O)C5(C)CC5)C[C@H]4/C=C\CC[C@H](C)C[C@@H](C)[C@H](NC(=O)OC(C)(C)C)C(=O)N3C2)c2ccccc12` [Compound 5100, tert-butyl ((2R,6S,7R,9S,13aS,14aR,16aS,Z)-7,9-dimethyl-14a-(((1-methylcyclopropyl)sulfonyl)carbamoyl)-5,16-dioxo-2-((4-(trideuteromethoxy)isoquinolin-1-yl)oxy)-1,2,3,5,6,7,8,9,10,11,13a,14,14a,15,16,16a-hexadecahydrocyclopropa[e]pyrrolo[1,2-a][1,4]diazacyclopentadecin-6-yl)carbamate], the EC50 in test [1] and in test [2] was under 5.46 nM in each case.

`[2H]C([2H])([2H])Oc1cnc(O[C@@H]2C[C@H]3C(=O)N[C@]4(C(=O)NS(=O)(=O)C5(C)CC5)C[C@H]4/C=C\CC[C@H](C)C[C@@H](C)[C@H](NC(=O)OC(C)(C)C(F)(F)F)C(=O)N3C2)c2ccccc12` [Compound 5102, 1,1,1-trifluoro-2-methylpropan-2-yl((2R,6S,7R,9S,13aS,14aR,16aS,Z)-7,9-dimethyl-14a-(((1-methylcyclopropyl)sulfonyl)carbamoyl)-5,16-dioxo-2-((4-(trideuteromethoxy)isoquinolin-1-yl)oxy)-1,2,3,5,6,7,8,9,10,11,13a,14,14a,15,16,16a-hexadecahydrocyclopropa[e]pyrrolo[1,2-a][1,4]diazacyclopentadecin-6-yl)carbamate]: the EC50 in test [1] and in test [2] was under 5.46 nM each time.

As for `[2H]C([2H])([2H])Oc1cnc(O[C@@H]2C[C@H]3C(=O)N[C@]4(C(=O)NS(=O)(=O)C5(C)CC5)C[C@H]4/C=C\CC[C@@H](C)C[C@@H](C)[C@H](NC(=O)OC(C)(C)C(F)(F)F)C(=O)N3C2)c2ccccc12` [Compound 5103, 1,1,1-trifluoro-2-methylpropan-2-yl((2R,6S,7R,9R,13aS,14aR,16aS,Z)-7,9-dimethyl-14a-(((1-methylcyclopropyl)sulfonyl)carbamoyl)-5,16-dioxo-2-((4-(trideuteromethoxy)isoquinolin-1-yl)oxy)-1,2,3,5,6,7,8,9,10,11,13a,14,14a,15,16,16a-hexadecahydrocyclopropa[e]pyrrolo[1,2-a][1,4]diazacyclopentadecin-6-yl)carbamate], the EC50 in test [1] and in test [2] was under 5.46 nM throughout.

For the compound `[2H]C([2H])([2H])Oc1cnc(O[C@@H]2C[C@H]3C(=O)N[C@]4(C(=O)NS(=O)(=O)C5(C)CC5)C[C@H]4/C=C\CC[C@H](C)C[C@@H](C)[C@H](NC(=O)OC(C([2H])([2H])[2H])(C([2H])([2H])[2H])C(F)(F)F)C(=O)N3C2)c2ccccc12` [Compound 5104, 1,1,1,3,3,3-hexadeutero-2-(trifluoromethyl)propan-2-yl((2R,6S,7R,9S,13aS,14aR,16aS,Z)-7,9-dimethyl-14a-(((1-methylcyclopropyl)sulfonyl)carbamoyl)-5,16-dioxo-2-((4-(trideuteromethoxy)isoquinolin-1-yl)oxy)-1,2,3,5,6,7,8,9,10,11,13a,14,14a,15,16,16a-hexadecahydrocyclopropa[e]pyrrolo[1,2-a][1,4]diazacyclopentadecin-6-yl)carbamate], the EC50 in test [1] and in test [2] was under 5.46 nM in each case.

In the case of `[2H]C([2H])([2H])Oc1cnc(O[C@@H]2C[C@H]3C(=O)N[C@]4(C(=O)NS(=O)(=O)C5(C)CC5)C[C@H]4/C=C\CC[C@@H](C)C[C@@H](C)[C@H](NC(=O)OC(C([2H])([2H])[2H])(C([2H])([2H])[2H])C(F)(F)F)C(=O)N3C2)c2ccccc12` [Compound 5105, 1,1,1,3,3,3-hexadeutero-2-(trifluoromethyl)propan-2-yl((2R,6S,7R,9R,13aS,14aR,16aS,Z)-7,9-dimethyl-14a-(((1-methylcyclopropyl)sulfonyl)carbamoyl)-5,16-dioxo-2-((4-(trideuteromethoxy)isoquinolin-1-yl)oxy)-1,2,3,5,6,7,8,9,10,11,13a,14,14a,15,16,16a-hexadecahydrocyclopropa[e]pyrrolo[1,2-a][1,4]diazacyclopentadecin-6-yl)carbamate], the EC50 in test [1] and in test [2] was under 5.46 nM each time.

The values are drawn from US9499550B2 (BRISTOL-MYERS SQUIBB COMPANY, priority 2012, dated 2016).
